By IC50 is commonly meant the concentration that inhibits the measured activity by half. High values mean weaker potency in that assay, low ones greater potency in that assay. For orientation: Ki means the dissociation constant of the complex between target and ligand, obtained from inhibition or displacement.

Activity calls are given as the source filed them. The rule behind the calls is not given here.

Consider seven molecules from ChEMBL document CHEMBL4699520, “A guanidinium-based inhibitor of a type I isopentenyl diphosphate isomerase” (Bioorg Med Chem Lett, 2020).

Assay [1] has as its target T1, Farnesyl pyrophosphate synthase (Homo sapiens, UniProt P14324).
T1 sequence (P14324 whole entry): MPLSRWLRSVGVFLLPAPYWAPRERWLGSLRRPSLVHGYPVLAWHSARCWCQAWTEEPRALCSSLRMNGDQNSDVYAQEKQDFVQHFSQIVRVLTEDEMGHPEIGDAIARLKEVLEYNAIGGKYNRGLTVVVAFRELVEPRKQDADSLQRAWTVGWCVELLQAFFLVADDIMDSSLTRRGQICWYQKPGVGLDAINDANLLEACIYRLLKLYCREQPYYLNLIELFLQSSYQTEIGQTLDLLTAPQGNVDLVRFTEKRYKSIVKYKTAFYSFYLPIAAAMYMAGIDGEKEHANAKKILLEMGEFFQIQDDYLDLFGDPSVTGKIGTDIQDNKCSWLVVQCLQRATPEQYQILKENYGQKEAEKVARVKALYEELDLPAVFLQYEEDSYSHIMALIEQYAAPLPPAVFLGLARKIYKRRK
The assay can be described thus: Inhibition of N-terminal hexaHis-tagged human FPPS (6 to 353 residues) expressed in Escherichia coli using GPP and IPP as substrate by enzyme coupled assay.

Assay [2] can be described thus: Inhibition of full-length N-terminal hexaHis-tagged Escherichia coli type 1 IDI using IPP as substrate by enzyme coupled assay.
The nature of assay [3]: Competitive inhibition of full-length N-terminal hexaHis-tagged Escherichia coli type 1 IDI using varying levels of IPP as substrate by Line weaver Burk plot analysis.
Assay [4] is described as follows: Inhibition of 4-DMATS (unknown origin).
Another assay deals with Claviceps purpurea. The assay can be described thus: Inhibition of Claviceps purpurea type 1 IDI.
Assay [5] can be described thus: Competitive inhibition of recombinant N-terminal hexaHis-tagged Staphylococcus aureus MS4 DSQS expressed in Escherichia coli Rosetta(DE3) using varying levels of FPP as substrate by Line weaver Burk plot analysis.

In the case of `NC(N)=NCP(=O)(O)CP(=O)(O)O`, the results for the half-maximal inhibitory concentration (IC50) in assay [1] and in assay [2] were 233 µM and 0.3 µM, respectively. Also, affinity in assay [3] was put at a Ki of 0.12 µM. Besides, the inhibition entry in assay [4] was “inactive”.
For `CC(=O)NCP(=O)(O)CP(=O)(O)O` the same measures were 177 µM, 190 µM, 51.7 µM and “inactive”.
Regarding `CN(C)CCOP(=O)(O)OP(=O)(O)O`, the Kdiss in the assay with Claviceps purpurea is < 1.2 10^-10M.
For `CC(C)CCCC(C)CCCN(C)C(=O)NCP(=O)(O)CP(=O)(O)O` (stereo unspecified), in assay [5], the Ki came to 0.61 µM.
`NCP(=O)(O)CP(=O)(O)O`: the half-maximal inhibitory concentration (IC50) in assay [1] is 150 µM; in assay [2], 15 µM. The Ki in assay [3] worked out at 4.2 µM. For the same molecule, the inhibition entry in assay [4] is “inactive”.
Consider `CC(C)=CCC/C(C)=C/CC/[N+](C)=C(\N)NCP(=O)(O)CP(=O)([O-])O`, for which the Ki in assay [5] worked out at 1.9 µM.
Same read-out and setting: next, `CC(C)=CCC/C(C)=C/CC/[N+](C)=C/NCP(=O)(O)CP(=O)([O-])O`: 4.2 µM.
